US20250059186A1, “Tricyclic Fused Heterocyclic PDE3/4 Dual Inhibitor and Use Thereof” (XIZANG HAISCO PHARMACEUTICAL CO., LTD., priority 2021, published 2025)
Where two headings read alike, the source gives them in different places.

Assays:
PDE3A recombinant enzyme = PDE3A recombinant enzyme (Homo sapiens (Human), UniProt Q14432); experiment: In vitro assay of inhibitory activity against PDE 3A enzyme (FP, FAM-cAMP); assay type: biochemical
Procedure: 1. In Vitro Assay of the Inhibitory Activity of Compounds Against PDE 3A and PDE 4B2 Enzymes
• Envision 2104 Multilabel Reader (PerkinElmer) • Black 96-well Plate (Cat #6005540, PerkinElmer) • PDE3A Assay Kit (BPS, Cat. 79736), PDE4B2 Assay Kit (BPS, Cat. 60343) • PDE3A recombinant enzyme • PDE4B2 recombinant enzyme • FAM-Cyclic-3′, 5′-AMP • PDE assay buffer • Binding Agent • Binding Agent Diluent (cAMP)
• 1) Prepare FAM cAMP working solution: 20 μL of FAM-Cyclic-3′, 5′-AMP stock was added to 1980 μL of PDE assay buffer. The mixture was added to all wells at 25 μL/well. • 2) Prepare compound solution: the test compounds were dissolved in DMSO to make a 10 mM stock solution. The compound stock solution was diluted in DMSO to a 100× Top Dose diluent. 5 μL of 100× Top Dose diluent was added to 45 μL of PDE assay buffer to prepare a compound Top Dose working solution. Then, the compound working solution was subjected to double dilution with PDE assay buffer containing 10% DMSO to prepare compound working solutions of various concentrations. The compound working solutions were added to compound wells at 5 μL/well. 5 μL of PDE assay buffer containing 10% DMSO was added to each control well. • 3) Prepare PDE enzyme solution: PDE3A and PDE4B2 enzyme stock solutions were diluted to 150 pg/μL and 50 pg/μL, respectively, with PDE assay buffer, and added to all compound wells and Vehicle control wells at 20 μL/well. 20 μL of PDE assay buffer was added to Blank control wells. • 4) React at room temperature for 1 h. • 5) Prepare Binding Agent: 80 μL of binding agent was added to 7920 μL of binding agent diluent, and the mixture was mixed well and added to all wells at 100 μL/well. • 6) React at room temperature for 1 h. • 7) Read FP on Envision. • 8) Calculation formula for original data:
[formula] • FPS=sample FP • FPV=Vehicle control FP • FPB=Blank control FP.
Nonlinear regression analysis of log[dose]-inhibition rate was performed by graphpad and IC50 was calculated.

[1] = tested on: methacholine-induced bronchoconstriction; experiment: Inhibitory effect on methacholine-induced bronchoconstriction in guinea pigs (WBP, Penh); assay type: in vivo, guinea pig; conditions: male guinea pigs, oral dose of 10 mg/kg, 6 h after drug exposure
Procedure: 2. Study on the Inhibitory Effect of Compounds on Methacholine-Induced Bronchoconstriction in Guinea Pigs
Male guinea pigs were selected as test animals in this study. The drug-treated group was orally administered with RPL554, compound 1 and compound 7 at a dose of 10 mg/kg, respectively, and the control group was administered with an equal dose of solvent. The animals were placed in a WBP instrument aerosol chamber 2 h, 4 h and 6 h after drug exposure. After the animals were adapted, they inhaled 300 μL of […] solution (0.5 mg/mL) by nebulization. After the end of the methacholine (Mch) exposure, Penh values were recorded continuously for 7 minutes. The percentage of bronchoconstriction inhibition by the compounds was calculated based on the Penh values.

[2] = tested on: guinea pig tracheal rings; experiment: Experiment on guinea pig tracheal rings (carbachol constriction); conditions: 10 μM single dose; for OT50 (50% inhibition onset time) / RT50 (50% inhibition recovery time): carbachol-constricted tracheal rings; for inhibition at 10 µM: Cavia porcellus, 6.75 h
Procedure: 3. Experiment on Guinea Pig Tracheal Rings
Experimental method: guinea pig tracheal rings were placed in a specific culture medium (Krebs-Henseleit) and balanced under 1 g tension for 40 minutes; carbachol was added in an amount sufficient to achieve 100% constriction of the tracheal rings; […] contractile tension of the tracheal rings.

[3] = cited from earlier work
[4] = in vivo; cited from earlier work
PDE4 = conditions: cited from earlier work
[5] = class symbols, read-out: PDE 3A IC50
[6] = values in text, read-out: PDE 3 IC50

Sequence of PDE3A recombinant enzyme (Q14432 whole entry): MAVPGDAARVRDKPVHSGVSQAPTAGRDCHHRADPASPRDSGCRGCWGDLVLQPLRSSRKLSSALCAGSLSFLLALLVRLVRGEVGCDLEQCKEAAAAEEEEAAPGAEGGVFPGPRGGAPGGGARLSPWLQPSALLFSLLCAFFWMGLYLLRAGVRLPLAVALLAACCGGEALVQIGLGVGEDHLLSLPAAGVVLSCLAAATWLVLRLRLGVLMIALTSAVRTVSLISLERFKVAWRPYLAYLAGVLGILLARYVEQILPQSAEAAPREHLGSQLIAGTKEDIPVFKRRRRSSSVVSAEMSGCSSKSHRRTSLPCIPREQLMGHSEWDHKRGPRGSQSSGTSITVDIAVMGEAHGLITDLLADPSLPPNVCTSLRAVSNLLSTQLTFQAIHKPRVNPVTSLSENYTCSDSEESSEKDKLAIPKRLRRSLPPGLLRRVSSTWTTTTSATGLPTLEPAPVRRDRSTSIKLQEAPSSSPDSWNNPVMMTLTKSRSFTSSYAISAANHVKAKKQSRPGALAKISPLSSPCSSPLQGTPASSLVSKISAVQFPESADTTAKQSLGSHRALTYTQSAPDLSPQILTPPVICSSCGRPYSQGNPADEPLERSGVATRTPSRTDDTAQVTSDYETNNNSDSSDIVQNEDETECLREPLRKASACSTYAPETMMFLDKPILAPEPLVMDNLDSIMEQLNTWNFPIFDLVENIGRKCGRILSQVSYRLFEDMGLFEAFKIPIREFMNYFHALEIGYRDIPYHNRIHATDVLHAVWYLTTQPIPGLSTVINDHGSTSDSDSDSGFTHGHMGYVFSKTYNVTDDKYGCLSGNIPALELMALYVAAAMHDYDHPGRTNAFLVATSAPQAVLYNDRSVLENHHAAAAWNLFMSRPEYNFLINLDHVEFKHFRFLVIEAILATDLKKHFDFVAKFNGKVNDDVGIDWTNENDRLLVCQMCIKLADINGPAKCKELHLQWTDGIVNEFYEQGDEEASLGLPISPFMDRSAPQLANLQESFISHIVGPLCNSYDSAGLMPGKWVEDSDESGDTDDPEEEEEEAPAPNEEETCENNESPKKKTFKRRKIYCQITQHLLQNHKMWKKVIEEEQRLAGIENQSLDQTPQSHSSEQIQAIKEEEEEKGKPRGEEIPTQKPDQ

SMILES	IC50 (PDE3A recombinant enzyme; [5]) [nM]	IC50 (PDE3A recombinant enzyme; [6]) [nM]	Inhibition rate on bronchoconstriction [1] [%]	OT50 (50% inhibition onset time) [2] [min]	RT50 (50% inhibition recovery time) [2] [h]	inhibition at 10 µM [2] [%]	further results
[2H]C([2H])([2H])Oc1cc2c(cc1OC)-c1c/c(=N\c3c(C)cc(C)cc3C)n(CCNC(N)=O)c(=O)n1CC2 [Compound 1, (E)-1-(2-(2-(mesitylimino)-10-methoxy-9-(methoxy-d3)-4-oxo-6,7-dihydro-2H-pyrimido[6,1-a]isoquinolin-3(4H)-yl)ethyl)urea]	< 50	0.15	69				
COc1cc2c(cc1OC)-c1c/c(=N\c3c(C)cc(C(F)(F)F)cc3C)n(CCNC(N)=O)c(=O)n1CC2 [Compound 2, (E)-1-(2-(2-((2,6-dimethyl-4-(trifluoromethyl)phenyl)imino)-9,10-dimethoxy-4-oxo-6,7-dihydro-2H-pyrimido[6,1-a]isoquinolin-3(4H)-yl)ethyl)urea]							IC50 (PDE3A recombinant enzyme): 50 to 100 nM
COc1cc2c(cc1OC)-c1c/c(=N\c3c(C)cc(C4CC4)cc3C)n(CCNC(N)=O)c(=O)n1CC2 [Compound 3, (E)-1-(2-(2-((4-cyclopropyl-2,6-dimethylphenyl)imino)-9,10-dimethoxy-4-oxo-6,7-dihydro-2H-pyrimido[6,1-a]isoquinolin-3(4H)-yl)ethyl)urea]	< 50						
COc1cc2c(cc1OC)-c1c/c(=N\c3c(C)cc(F)cc3C)n(CCNC(N)=O)c(=O)n1CC2 [Compound 5, (E)-1-(2-(2-((4-fluoro-2,6-dimethylphenyl)imino)-9,10-dimethoxy-4-oxo-6,7-dihydro-2H-pyrimido[6,1-a]isoquinolin-3(4H)-yl)ethyl)urea]	50 to 100						
[2H]C([2H])([2H])Oc1cc2c(cc1OC)CCn1c-2c/c(=N\c2c(C)cc(C)cc2C)n(CCNC(N)=O)c1=O [Compound 7, (E)-1-(2-(2-(mesitylimino)-9-methoxy-10-(methoxy-d3)-4-oxo-6,7-dihydro-2H-pyrimido[6,1-a]isoquinolin-3(4H)-yl)ethyl)urea]	< 50	0.17	80	19.97	>6.75	75.9	
COc1cc2c(cc1OC)-c1c/c(=N\c3c(C)cc(C)cc3C)n(CCNC(N)=O)c(=O)n1CC2 [RPL554, reference compound]			35	25.51	>6.75	56.7	solubility [3]: poor solubility; plasma clearance [4]: high plasma clearance; PDE4 inhibitory activity (PDE4): unsatisfactory
